According to ChEMBL document CHEMBL4190346, “Structure-based design, synthesis, and biological evaluation of withaferin A-analogues as potent apoptotic inducers” (Eur J Med Chem, 2017):
Numbered stars: 1 amine (or outer) side, 2 acyl side, 3 side chain; on linkers, the order of the positions; unused ones are H or OH. Bridge positions count the residues as written; N and C are the ends. Square brackets hold non-standard residues; d marks the D form. Peptide text beside a SMILES is read from it. I, II: the chains in the order shown. Actinocin(1to9) = Cc1c2oc3c(C)ccc(C(=O)[*:2])c3nc-2c(C(=O)[*:1])c(N)c1=O; NMeV = CN[C@H](C(=O)O)C(C)C; Sar = CNCC(=O)O

What was measured:
A549 [1] = test: Cytotoxicity against human A549 cells assessed as reduction in cell viability using compound addition to cell culture cells in lag phase of growth and incubated for 48 hrs by MTT assay; format: functional, cell-based; settings: Homo sapiens, A549, 48 h; read-out: IC50
MCF7 [2] = test: Cytotoxicity against human MCF7 cells assessed as reduction in cell viability using compound addition to cell culture cells in log phase of growth and incubated for 48 hrs by MTT assay; format: functional, cell-based; settings: Homo sapiens, MCF7, 48 h; read-out: IC50
MCF7 [3] = test: Cytotoxicity against human MCF7 cells assessed as reduction in cell viability using compound addition to cell culture cells in lag phase of growth and incubated for 48 hrs by MTT assay; format: functional, cell-based; settings: Homo sapiens, MCF7, 48 h; read-out: IC50
Vero [4] = test: Cytotoxicity against African green monkey Vero cells assessed as reduction in cell viability using compound addition to cell culture cells in lag phase of growth and incubated for 48 hrs by MTT assay; format: cell-based, Chlorocebus sabaeus; settings: Chlorocebus sabaeus, Vero, 48 h; read-out: IC50
HeLa [5] = test: Cytotoxicity against human HeLa cells assessed as reduction in cell viability using compound addition to cell culture cells in lag phase of growth and incubated for 48 hrs by MTT assay; format: functional, cell-based; settings: Homo sapiens, HeLa, 48 h; read-out: IC50
Vero [6] = test: Cytotoxicity against African green monkey Vero cells assessed as reduction in cell viability using compound addition to cell culture cells in log phase of growth and incubated for 48 hrs by MTT assay; format: cell-based, Chlorocebus sabaeus; settings: Chlorocebus sabaeus, Vero, 48 h; read-out: IC50
HeLa [7] = test: Cytotoxicity against human HeLa cells assessed as reduction in cell viability using compound addition to cell culture cells in log phase of growth and incubated for 48 hrs by MTT assay; format: functional, cell-based; settings: Homo sapiens, HeLa, 48 h; read-out: IC50
A549 [8] = test: Cytotoxicity against human A549 cells assessed as reduction in cell viability using compound addition to cell culture cells in log phase of growth and incubated for 48 hrs by MTT assay; format: functional, cell-based; settings: Homo sapiens, A549, 48 h; read-out: IC50

SMILES	IC50 (A549 [1])	IC50 (MCF7 [2])	IC50 (MCF7 [3])	IC50 (Vero [4])	IC50 (HeLa [5])	IC50 (Vero [6])	IC50 (HeLa [7])	IC50 (A549 [8])
CC(=O)OCC1=C(C)C[C@H]([C@@H](C)[C@H]2CC[C@H]3[C@@H]4C[C@H]5O[C@]56C(=O)C=CC(=O)[C@]6(C)[C@H]4CC[C@]23C)OC1=O	13.2 µM	6.8 µM	6.4 µM	3.9 µM	16.3 µM	6.4 µM	17.5 µM	16.2 µM
CCCCCCCC(=O)OCC1=C(C)C[C@H]([C@@H](C)[C@H]2CC[C@H]3[C@@H]4C[C@H](Cl)[C@]5(O)[C@@H](O)C=CC(=O)[C@]5(C)[C@H]4CC[C@]23C)OC1=O	31.3 µM	13.8 µM	15.1 µM	16.4 µM	29.5 µM	16.1 µM	32.9 µM	> 40 µM
CO[C@H]1C=CC(=O)[C@]2(C)[C@H]3CC[C@]4(C)[C@@H]([C@H](C)[C@H]5CC(C)=C(CO)C(=O)O5)CC[C@H]4[C@@H]3C[C@H]3O[C@]132	4 µM	1.7 µM	1.1 µM	0.9 µM	2.1 µM	1.5 µM	3.8 µM	4.4 µM
COCC1=C(C)C[C@H]([C@@H](C)[C@H]2CC[C@H]3[C@@H]4C[C@H]5O[C@]56[C@@H](O)C=CC(=O)[C@]6(C)[C@H]4CC[C@]23C)OC1=O	4.2 µM	1.9 µM	1.4 µM	0.9 µM	3.2 µM	1.5 µM	3.3 µM	5.3 µM
CC1=C(C)C(=O)O[C@@H]([C@@H](C)[C@H]2CC[C@H]3[C@@H]4C[C@H]5O[C@]56[C@@H](O)CCC(=O)[C@]6(C)[C@H]4CC[C@]23C)C1	> 40 µM	> 40 µM	> 40 µM	> 40 µM	> 40 µM	> 40 µM	> 40 µM	> 40 µM
CC1=C(C=O)C(=O)O[C@@H]([C@@H](C)[C@H]2CC[C@H]3[C@@H]4C[C@H]5O[C@]56C(=O)C=CC(=O)[C@]6(C)[C@H]4CC[C@]23C)C1	16.9 µM	11 µM	8.9 µM	12.8 µM	12.3 µM	13.4 µM	18.5 µM	16.1 µM
CO[C@H]1CC(=O)[C@]2(C)[C@H]3CC[C@]4(C)[C@@H]([C@H](C)[C@H]5CC(C)=C(CO)C(=O)O5)CC[C@H]4[C@@H]3C[C@H]3O[C@]32[C@H]1O	> 40 µM	> 40 µM	> 40 µM	> 40 µM	> 40 µM	> 40 µM	> 40 µM	> 40 µM
C[C@@H]([C@H]1CC[C@H]2[C@@H]3C[C@H]4O[C@]45[C@@H](O)[C@H]4O[C@H]4C(=O)[C@]5(C)[C@H]3CC[C@]12C)[C@H]1C[C@@]2(C)O[C@@]2(CO)C(=O)O1	> 40 µM	> 40 µM	> 40 µM	> 40 µM	> 40 µM	> 40 µM	> 40 µM	> 40 µM
COc1ccc(C(=O)OCC2=C(C)C[C@H]([C@@H](C)[C@H]3CC[C@H]4[C@@H]5C[C@H](Cl)[C@]6(O)[C@@H](OC(=O)c7ccc(OC)cc7)C=CC(=O)[C@]6(C)[C@H]5CC[C@]34C)OC2=O)cc1	24 µM	4.5 µM	3 µM	3.7 µM	11.2 µM	3 µM	28.1 µM	> 40 µM
COc1ccc(C(=O)OCC2=C(C)C[C@H]([C@@H](C)[C@H]3CC[C@H]4[C@@H]5C[C@H](Cl)[C@]6(O)[C@@H](O)C=CC(=O)[C@]6(C)[C@H]5CC[C@]34C)OC2=O)cc1	> 40 µM	6.8 µM	3 µM	3.8 µM	26.4 µM	6.8 µM	37.7 µM	> 40 µM
CC(=O)OCC1=C(C)C[C@H]([C@@H](C)[C@H]2CC[C@H]3[C@@H]4C[C@H]5O[C@]56[C@@H](O)C=CC(=O)[C@]6(C)[C@H]4CC[C@]23C)OC1=O	–	4.6 µM	–	–	–	5.9 µM	10.2 µM	–
Cc1c2oc3c(C)ccc(C(=O)N[C@@H]4C(=O)N[C@H](C(C)C)C(=O)N5CCC[C@H]5C(=O)N(C)CC(=O)N(C)[C@@H](C(C)C)C(=O)O[C@@H]4C)c3nc-2c(C(=O)N[C@@H]2C(=O)N[C@H](C(C)C)C(=O)N3CCC[C@H]3C(=O)N(C)CC(=O)N(C)[C@@H](C(C)C)C(=O)O[C@@H]2C)c(N)c1=O [DACTINOMYCIN] (I: T[dV]P[Sar][NMeV] / II: T[dV]P[Sar][NMeV]; ester I:1-I:C, II:1-II:C; linker I:N-II:N via Actinocin(1to9))	–	0.048 µM	–	–	–	0.011 µM	0.0032 µM	0.008 µM
CC1=C(CO)C(=O)O[C@@H]([C@@H](C)[C@H]2CC[C@H]3[C@@H]4C[C@@H]5ON[C@@H]6CC(=O)[C@](C)([C@H]4CC[C@]23C)[C@@]5(O)[C@H]6O)C1	> 40 µM	> 40 µM	> 40 µM	> 40 µM	> 40 µM	> 40 µM	> 40 µM	> 40 µM
CCCCCCCC(=O)OCC1=C(C)C[C@H]([C@@H](C)[C@H]2CC[C@H]3[C@@H]4C[C@H](Cl)[C@]5(O)[C@@H](OC(=O)CCCCCCC)C=CC(=O)[C@]5(C)[C@H]4CC[C@]23C)OC1=O	> 40 µM	> 40 µM	> 40 µM	> 40 µM	> 40 µM	> 40 µM	> 40 µM	> 40 µM
CC1=C(CCl)C(=O)O[C@@H]([C@@H](C)[C@H]2CC[C@H]3[C@@H]4C[C@H]5O[C@]56[C@H](Cl)C=CC(=O)[C@]6(C)[C@H]4CC[C@]23C)C1	9.6 µM	4.8 µM	4.1 µM	1.9 µM	3.1 µM	3.1 µM	7.9 µM	18.1 µM
Sc1ncnc2nc[nH]c12 [MERCAPTOPURINE ANHYDROUS]	–	–	–	–	–	> 117 µM	–	–
CC1=C(CO)C(=O)O[C@@H]([C@@H](C)[C@H]2CC[C@H]3[C@@H]4C[C@H]5O[C@]56[C@@H](O)CCC(=O)[C@]6(C)[C@H]4CC[C@]23C)C1	–	12.2 µM	–	–	–	24.2 µM	32.2 µM	19.7 µM
CC1=C(CO)C(=O)O[C@@H]([C@@H](C)[C@H]2CC[C@H]3[C@@H]4C[C@H](Cl)[C@]5(O)[C@@H](O)C=CC(=O)[C@]5(C)[C@H]4CC[C@]23C)C1	–	7.9 µM	–	–	–	–	17.5 µM	16.1 µM
CC1=C(CO[Si](C)(C)C(C)(C)C)C(=O)O[C@@H]([C@@H](C)[C@H]2CC[C@H]3[C@@H]4C[C@H]5O[C@]56[C@@H](O)C=CC(=O)[C@]6(C)[C@H]4CC[C@]23C)C1	–	1.2 µM	–	–	–	0.8 µM	3.1 µM	4 µM
